Values of other authors as cited in patent US6316473A, “Two surfactant-containing medicinal composition” (Fujisawa Pharmaceutical Co., Ltd., priority 1997, dated 2001).

Conditions: stated as well known

- solubility in water: only sparingly soluble in water
SMILES: C=CC[C@@H]1/C=C(\C)C[C@H](C)C[C@H](OC)[C@H]2O[C@@](O)(C(=O)C(=O)N3CCCC[C@H]3C(=O)O[C@H](/C(C)=C/[C@@H]3CC[C@@H](O)[C@H](OC)C3)[C@H](C)[C@@H](O)CC1=O)[C@H](C)C[C@@H]2OC [FK506, 17-allyl-1,14-dihydroxy-12-[2-(4-hydroxy-3-methoxycyclohexyl)-1-methylvinyl]-23,25-dimethoxy-13,19,21,27-tetramethyl-11,28-dioxa-4-azatricyclo[22.3. 1.0 4,9]octacos-18-ene-2,3,10,16-tetraone]
